Like-named read-outs stand apart in the source and are kept apart here.
How the values were obtained:
[1] = pharmacokinetic testing of indoximod prodrugs in liquid formulation in mice; settings: for AUC(0-inf) / Cmax / Tmax / half-life: mouse, plasma, po; for % Change in Norm. Cmax / % Increase in Norm AUC: vs indoximod, Mouse, PO solution, salt form FB
Procedure: Blood samples (0.1-0.2 mL) were collected from the femoral artery port from rats or by retro-orbital bleeding from mice and plasma was immediately collected by centrifugation and stored on dry ice to avoid prodrug hydrolysis after plasma collection. […] The pharmacokinetic parameters reflect the average of individual parameter values obtained from each individual rat (n) or one common parameter from a single pharmacokinetic curve derived from blood samples obtained from a group of mice (n).

[2] = solubility of indoximod and its salts in water, buffers and SGF; assay type: physicochemical
[3] = hygroscopicity and stability of indoximod and its salts; assay type: physicochemical
[4] = human pharmacokinetics of oral indoximod; assay type: in vivo; settings: plasma
[5] = pharmacokinetic testing of indoximod prodrug salts in solid capsule formulation in cynomolgous monkeys
[6] = system: ectopic melanoma, colon and lung tumors, breast tumor models; settings: cited from earlier work
[7] = pharmacokinetic testing of indoximod prodrug salts in solid capsule formulation in rats; assay type: in vivo; settings: for % Change Cmax / % Change in AUC: vs indoximod free base
Procedure: These blends were formulated so that each capsule contained the same molar dose of each prodrug. […] The composition and uniformity of a representative sample of capsules from each batch was verified by weight and by LC-MS/MS to determine the average indoximod or prodrug content.
(§1) Rats were fasted 16 h prior to dosing to eliminate any confounding food effects, and food was returned 2 h after dosing.

[8] = pharmacokinetic testing of indoximod salts in capsule formulation in rats; assay type: in vivo; settings: rat, plasma, po, capsules
Procedure: Three dose levels were investigated: 37, 185 or 500 μmol/kg.
Capsules were manually filled and the composition uniformity of a representative sample of capsules from each batch was verified by weight and by LC-MS/MS to determine the average indoximod content.
as §1

[9] = in-vitro dissolution test of SDD formulations in simulated gastric buffer (GB) and simulated intestinal fluid (SIF); assay type: physicochemical
Procedure: In this study, SDD formulations were made by two methods: hot process spray dry—formulation solution heated up to 110° C. before spraying dry, and basic spray dry—formulation pH raised up to ˜11.5 (room temperature) before spraying dry. The performance of each SDD formulation was investigated by in-vitro dissolution test in simulated gastric buffer (GB) and simulated intestinal fluid (SIF). […] In addition, higher drug load in the powder was preferred since it could decrease the dose amount of the final formulation. Based on all these criteria, two SDD formulations were selected for further in vivo PK studies in monkeys.

[10] = indoximod plasma exposure in murine antitumor experiments; assay type: in vivo; settings: mice; for exposure: ~500 mg/kg/day or oral 200 mg/kg bid
[11] = crossover pharmacokinetic study of indoximod free base, salts and SDD in cynomolgus monkeys; assay type: in vivo; settings: male, cynomolgus monkey, plasma, po; for AUC(0-t): oral, read-out: AUC(0 −> 48 h)
Procedure: The SDD suspension formulations were prepared in 0.5% methylcellulose (Methocel).

[12] = indoximod, cynomolgous monkeys, oral capsules, dose 275 μmol/kg, salt form free base
[13] = Table 10.1, rats, oral capsules, dose 37 μmol/kg, salt form free base
[14] = Table 10.1, rats, oral capsules, dose 185 μmol/kg, salt form free base
[15] = Table 10.1, rats, oral capsules, dose 500 μmol/kg, salt form free base
[16] = Table 10.2, indoximod, rats, oral capsules, dose 37 μmol/kg, salt form free base
[17] = Table 10.2, indoximod, rats, oral capsules, dose 185 μmol/kg, salt form free base
[18] = Table 10.2, indoximod, rats, oral capsules, dose 500 μmol/kg, salt form free base
[19] = Table 10.2, rats, oral capsules, dose 37 μmol/kg, salt form free base
[20] = Table 10.2, rats, oral capsules, dose 185 μmol/kg, salt form free base
[21] = Table 10.2, rats, oral capsules, dose 500 μmol/kg, salt form free base

Cn1cc(C[C@@H](N)C(=O)O)c2ccccc21 [indoximod, 1-methyl-D-tryptophan, reference compound]
AUC(0-inf) ([1]; 10 mg/kg): 34 µM·h
Cmax ([1]; 10 mg/kg): 9 µM
Tmax ([1]; 10 mg/kg): 0.5 h
half-life ([1]; 10 mg/kg): 1.8 h
AUC(0-inf) ([1]; 100 mg/kg): 325 µM·h
Cmax ([1]; 100 mg/kg): 43 µM
Tmax ([1]; 100 mg/kg): 1 h
half-life ([1]; 100 mg/kg): 3.5 h
% Change in Norm. Cmax ([1]; dose 10 mg/kg): 0%
% Increase in Norm AUC ([1]; dose 10 mg/kg): 0%
% Change in Norm. Cmax ([1]; dose 100 mg/kg): 0%
% Increase in Norm AUC ([1]; dose 100 mg/kg): 0%
pH of the SGF solution (in brackets) ([2]; 25° C., SGF solubility test, listed as Free base): 2.32
Solubility (25° C., mg/mL) SGF ([2]; 25° C., SGF, listed as Free base): 3.6 mg/mL
pH of the water solution (in brackets) ([2]; 25° C., water solubility test, listed as Free base): 6.03
Solubility (25° C., mg/mL) Water ([2]; 25° C., water, listed as Free base): 1.8 mg/mL
solubility ([2]; aqueous solutions, buffered or un-buffered, pH 2, aqueous buffer, pH 2-8): 1800 to 2000 µg/mL
hygroscopicity (weight gain) ([3]; 0-80%RH): 0.09%
stability in solution ([3]; 0.1 N HCl and 50 mM phosphate buffers pH 2-8, 25° C., 24 hours): stable
chemical stability of the solid powder form ([3]; 25° C/60%RH, 40° C., 40° C/75%RH, 60° C. and 70° C. for 4 weeks): chemically stable
Hygroscopicity (0-80% RH) ([3]; Table 2, listed as Free base, in % (unit assumed)): 0.09
Tmax [4]: ~3 h
half-life [4]: ~10 h
AUC(0-t) ([4]; patients, up to 800 mg/dose, read-out: drug exposure (AUC(0-last))): ~100 µM·h
Cmax ([4]; po, 800 mg/dose, patients, about 800 mg/dose, read-out: maximum plasma concentration (Cmax)): 15 µM
AUC(0-inf) ([4]; ~800 mg/dose): 100 µM·h
AUC(0->∞) ([5]; indoximod, cynomolgous monkeys, oral capsules, dose 92 μmol/kg, salt form free base): 38.5 ± 4 µM·h
AUC(0->∞) [5, 12]: 74.9 ± 5 µM·h
Cmax [5, 12]: 17.5 ± 3 µM
Cmax ([5]; monkey, blood, po, 92 umol/kg): 8.2 ± 0.4 µM
AUC(0-inf) ([5]; monkey, blood, po, 875 umol/kg): 165 ± 52 µM·h
Cmax ([5]; monkey, blood, po, 875 umol/kg): 27.8 ± 8 µM
antitumor effect ([6]; in combination with chemotherapy): demonstrates antitumor effects
antitumor effect ([6]; melanoma models, combination with anti-CTLA4 (ipilimumab)): synergistic antitumor effect
% Change Cmax [7, 13]: 0%
% Change in AUC [7, 13]: 0%
% Change Cmax [7, 14]: 0%
% Change in AUC [7, 14]: 0%
% Change Cmax [7, 15]: 0%
% Change in AUC [7, 15]: 0%
AUC(0->∞) [7, 16]: 390 ± 166 µM·h
Cmax [7, 16]: 15.9 ± 8 µM
AUC(0->∞) [7, 17]: 1080 ± 478 µM·h
Cmax [7, 17]: 20.8 ± 4 µM
AUC(0->∞) [7, 18]: 2871 ± 1379 µM·h
Cmax [7, 18]: 76.2 ± 25 µM
% Change Cmax [7, 19]: 0%
% Change in AUC [7, 19]: 0%
% Change Cmax [7, 20]: 0%
% Change in AUC [7, 20]: 0%
% Change Cmax [7, 21]: 0%
% Change in AUC [7, 21]: 0%
Cmax ([7]; Table 10.3, indoximod, rats, oral capsules, dose 37 μmol/kg, salt form free base): 15.9 ± 8 µM
Cmax ([7]; Table 10.3, indoximod, rats, oral capsules, dose 185 μmol/kg, salt form free base): 20.8 ± 4 µM
Cmax ([7]; Table 10.3, indoximod, rats, oral capsules, dose 500 μmol/kg, salt form free base): 76.2 ± 25 µM
AUC(0-inf) ([7]; rat, plasma, po, 37 umol/kg): 390 ± 166 µM·h
Cmax ([7]; rat, plasma, po, 37 umol/kg): 15.9 ± 8 µM
AUC(0-inf) ([7]; rat, plasma, po, 185 umol/kg): 1080 ± 478 µM·h
Cmax ([7]; rat, plasma, po, 185 umol/kg): 20.8 ± 4 µM
AUC(0-inf) ([7]; rat, plasma, po, 500 umol/kg): 2870 ± 1380 µM·h
Cmax ([7]; rat, plasma, po, 500 umol/kg): 76.2 ± 25 µM
AUC(0-inf) ([8]; 37 umol/kg): 390 ± 166 µM·h
AUC(0-inf) ([8]; 185 umol/kg): 1080 ± 478 µM·h
Cmax ([8]; 185 umol/kg): 20.8 ± 4 µM
AUC(0-inf) ([8]; 500 umol/kg): 2870 ± 1380 µM·h
UltraC90 ([9]; SIF, 90 min, after ultracentrifugation): 1,849 μg/mL
UltraC1200 ([9]; SIF, 1200 min, after ultracentrifugation): 1,854 μg/mL
CmaxGB ([9]; maximum indoximod concentration, dissolved in GB for 30 min): 5,154 μg/mL
Cmax90 ([9]; maximum indoximod concentration, dissolved in SIF for 90 min): 2,213 μg/mL
exposure [10]: greater than 300 μM.h
exposure ([10]; listed as Indoximod): > 300 µM·h
Cmax ([10]; mouse, plasma, drinking water 3 mg/mL (~500 mg/kg/day) or oral 200 mg/kg bid): > 20 µM
Cmax ([11]; 275 umol/kg): 12.9 ± 3.3 µM
AUC(0-t) ([11]; 275 umol/kg, 275 μmol/kg): 66 ± 17 µM·h
Cmax ([11]; 825 umol/kg): 25.6 ± 12.8 µM
AUC(0-t) ([11]; 825 umol/kg, 825 μmol/kg): 127 ± 73 µM·h
